Measurements reported in patent US6818407B2, “Anti-endotoxic antimicrobial cationic peptides and methods of use therfor” (priority 1998, dated 2004).
Ends that are not written are not given here.

How the values were obtained:
[1] = Lethal endotoxemia in galactosamine-sensitized mice; type: in vivo, CD-1 mice; conditions: peptide 200 μg intraperitoneal within 10 min of 10 μg LPS; 24 hours post injection; 5 mice per group; no peptide 100
Experimental: To confirm this in vivo, endotoxic shock was induced by intraperitoneal injection of 10 μg of E.coli 0111:B4 LPS in phosphate-buffered saline (PBS; pH 7.2) into galactosamine-sensitized 8- to 10- week old female CD-1 mice (5 per group). In experiments involving peptides, 200 μg in 100 μl of sterile water was injected at separate intraperitoneal sites within 10 min of LPS injection. Survival was monitored at 24 hours post injection.

E. coli = experiment: MIC, broth microdilution assay in polypropylene microtiter trays; type: cell-based; conditions: average of three separate experiments
Experimental: (§1) The biological activity of the peptides can be determined by standard methods known to those of skill in the art, such as Aminimal inhibitory concentration (MIC)≅ assay described in the present examples, whereby the lowest concentration at which no change in OD is observed for a given period of time is recorded as MIC. Alternatively, Afractional inhibitory concentration (FIC)≅ is also useful for determination of synergy between the peptides of the invention, or the peptides in combination with known antibiotics. FICs are performed by checkerboard titrations of peptides in one dimension of a microtiter plate, and of antibiotics in the other dimension, for example. The FIC is calculated by looking at the impact of one antibiotic on the MIC of the other and vice versa. […] Preferably, an FIC of less than 0.5 is obtained for synergism. As used herein, FIC can be determined as follows: [formula]
(§2) A method which employed polypropylene microtiter trays in a broth microdilution assay was developed.

P. aeruginosa = experiment: as above; type: cell-based; conditions: average of three separate experiments
Experimental: as §1, §2

S. aureus K147 = experiment: as above; type: cell-based; conditions: average of three separate experiments
Experimental: as §1, §2

S. aureus = experiment: as above; type: cell-based; conditions: average of three separate experiments
Experimental: as §1, §2

S. epidermis = experiment: as above; type: cell-based; conditions: average of three separate experiments
Experimental: as §1, §2

[2] = system: Pseudomonas aeruginosa strain M2; experiment: Protection of neutropenic CD-1 mice challenged with Pseudomonas aeruginosa; type: in vivo; design: Survival post bacterial challenge, surviving mice: reference not given here; conditions: for Survival (%) post bacterial challenge: PBS 8
Experimental: CD-1 mice were induced to be neutropenic via 3 intraperitoneal injections of cyclophosphamide ([…]) every another day. Immediately after the third administration of cyclophosphamide, the mice were challenged by intraperitoneal injection of Pseudomonas aeruginosa strain M2 (200-300 organisms/mouse). Cationic peptides (200 µg per mouse=8 mg/kg) in 100 µl buffered citrate were injected intraperitoneally at 30 min (single dose) or 30 min and 16 hrs (double dose) post bacterial challenge, respectively. The data were the average values of 2 individual experiments. PBS was used as a control. […] In general single dose protection studies gave better protection than double dose experiments.

[3] = system: Aeromonas salmonicida (As); type: cell-based; conditions: Mueller Hinton Broth
Experimental: as §1
(§3) These peptides varied in activity (Table 11), however, the C-terminally capped pleurocidin especially and its N-terminally capped lysine derivative had much better activities against a variety of bacteria including Vibrio anguillarum (Va), Aeromonas salmonicida (As), Staphylococcus epidermidis (C621), Salmonella typhimurium wild type (C587) and phoP phoQ mutant (C610), and Pseudomonas aeruginosa wild type (K799) and outer membrane barrier altered (Z61). The antimicrobial peptide CEME, a fusion peptide made from portions of an insect defensin ceropin A and the bee venom peptide melittin (Piers and Hancock, Mol. Microbiol., 12:951-8, 1994), as well as the known antibiotics polymyxin B and gentamicin were used as controls. Replacing the pleurocidin N-terminus with the dermaseptin N-terminus had no effect. Replacing pleurocidin N-terminus with the ceratoxin N-terminus reduced activity. […] Amidating the C-terminus improved antimicrobial activity. Replacing the pleurocidin C-terminus with the misgurin C-terminus had no effect.
(§4) Bacteria included Vibrio anguillarum (Va), Aeromonas salmonicida (As), Staphylococcus epidermidis (C621), Salmonella typhimurium wild type (C587) and phoP phoQ mutant (C6 10), and Pseudomonas aeruginosa wild type (K799) and outer membrane barrier altered (Z61).

[4] = system: Pseudomonas aeruginosa outer membrane barrier altered (Z61); type: cell-based; conditions: Mueller Hinton Broth
Experimental: as §1, §3, §4

[5] = system: Pseudomonas aeruginosa wild type (K799); type: cell-based; conditions: Mueller Hinton Broth
Experimental: as §1, §3, §4

[6] = system: Salmonella typhimurium phoP phoQ mutant (C610); type: cell-based; conditions: Mueller Hinton Broth
Experimental: as §1, §3, §4

[7] = system: Salmonella typhimurium wild type (C587); type: cell-based; conditions: Mueller Hinton Broth
Experimental: as §1, §3, §4

[8] = system: Staphylococcus epidermidis (C621); type: cell-based; conditions: Mueller Hinton Broth
Experimental: as §1, §3, §4

Vibrio anguillarum (Va) = type: cell-based; conditions: Mueller Hinton Broth
Experimental: as §1, §3, §4

CC[C@H](C)[C@H](NC(=O)CNC(=O)[C@@H](NC(=O)[C@H](CCCCN)NC(=O)[C@H](CCCCN)NC(=O)[C@H](Cc1ccccc1)NC(=O)[C@H](CC(C)C)NC(=O)[C@H](CCCCN)NC(=O)[C@H](Cc1c[nH]c2ccccc12)NC(=O)[C@@H](N)CCCCN)[C@@H](C)CC)C(=O)NCC(=O)N[C@@H](C)C(=O)N[C@H](C(=O)N[C@@H](CC(C)C)C(=O)N[C@@H](CCCCN)C(=O)N[C@H](C(=O)N[C@@H](CC(C)C)C(=O)N[C@H](C(=O)N[C@H](C(=O)NCC(=O)N[C@@H](CC(C)C)C(=O)N1CCC[C@H]1C(=O)N[C@@H](C)C(=O)N[C@@H](CC(C)C)C(=O)N[C@@H](CCCCN)C(=O)N[C@@H](CC(C)C)C(=O)N[C@H](C(=O)N[C@@H](CCCCN)C(=O)O)[C@@H](C)O)[C@@H](C)O)[C@@H](C)O)C(C)C)C(C)C [CEMA, reference compound]
Mortality (%) [1]: 0%

CC[C@H](C)[C@H](NC(=O)[C@H](CC(C)C)NC(=O)[C@H](C)NC(=O)[C@@H]1CCCN1C(=O)[C@H](CC(C)C)NC(=O)CNC(=O)[C@@H](NC(=O)[C@@H](NC(=O)[C@H](CC(C)C)NC(=O)[C@@H](NC(=O)[C@H](CCCCN)NC(=O)[C@H](CCCCN)NC(=O)[C@@H](NC(=O)[C@H](C)NC(=O)[C@@H](NC(=O)[C@@H](NC(=O)[C@H](CC(C)C)NC(=O)[C@H](CCCCN)NC(=O)[C@H](CCCCN)NC(=O)[C@@H](NC(=O)[C@H](Cc1ccccc1)NC(=O)[C@H](CO)NC(=O)[C@H](CCCCN)NC(=O)[C@H](Cc1c[nH]c2ccccc12)NC(=O)[C@@H](N)CCCCN)[C@@H](C)CC)[C@@H](C)O)[C@@H](C)O)C(C)C)C(C)C)[C@@H](C)O)[C@@H](C)O)C(=O)N[C@@H](CO)C(=O)O [CP-29, reference compound]
MIC E. coli (E. coli): 2 µg/mL
MIC P. aeruginosa (P. aeruginosa): 6 µg/mL
MIC S. aureus K147 (S. aureus K147): 11 µg/mL
MIC S. aureus (S. aureus): 19 µg/mL
MIC S. epidermis (S. epidermis): 5 µg/mL
Survival post bacterial challenge, surviving mice ([2]; single dose (200 μg per mouse i.p. at 30 min), 16 hr): 8
Survival post bacterial challenge, surviving mice ([2]; single dose, 24 hr): 8
Survival post bacterial challenge, surviving mice ([2]; single dose, 41 hr): 7
Survival post bacterial challenge, surviving mice ([2]; single dose, 48 hr): 6
Survival post bacterial challenge, surviving mice ([2]; single dose, 64 hr): 4
Survival (%) post bacterial challenge ([2]; single dose, 64 hr): 50%
Survival post bacterial challenge, surviving mice ([2]; single dose, 72 hr): 4
Survival (%) post bacterial challenge ([2]; single dose, 72 hr): 50%
Survival post bacterial challenge, surviving mice ([2]; single dose, 96 hr): 3
Survival (%) post bacterial challenge ([2]; single dose, 96 hr): 37%

SIGSAFKKAAHVGKHVGKAALGAAARRRK [CER-M]
MIC As [3]: 32 µg/mL
MIC Z61 [4]: 64 µg/mL
MIC K799 [5]: >64 µg/mL
MIC C610 [6]: 8 µg/mL
MIC C587 [7]: >64 µg/mL
MIC C621 [8]: >64 µg/mL
MIC Va (Vibrio anguillarum (Va)): >64 µg/mL

SIGSAFKKAAHVGKHVGKAALTHYL-NH2 [P-CER]
MIC As [3]: 8 µg/mL
MIC Z61 [4]: >64 µg/mL
MIC K799 [5]: >64 µg/mL
MIC C610 [6]: 2 µg/mL
MIC C587 [7]: >64 µg/mL
MIC C621 [8]: >64 µg/mL
MIC Va (Vibrio anguillarum (Va)): 64 µg/mL

gentamicin [reference compound]
MIC As [3]: <0.5 µg/mL
MIC Z61 [4]: <0.5 µg/mL
MIC K799 [5]: <0.5 µg/mL
MIC C610 [6]: <0.5 µg/mL
MIC C587 [7]: <0.5 µg/mL
MIC C621 [8]: 16 µg/mL
MIC Va (Vibrio anguillarum (Va)): 1 µg/mL

polymyxin B [reference compound]
MIC As [3]: <0.5 µg/mL
MIC Z61 [4]: <0.5 µg/mL
MIC K799 [5]: <0.5 µg/mL
MIC C610 [6]: <0.5 µg/mL
MIC C587 [7]: <0.5 µg/mL
MIC C621 [8]: 16 µg/mL
MIC Va (Vibrio anguillarum (Va)): 16 µg/mL
